Values of other authors as cited in article PMC2096654 (Purinergic Signalling, 2006).

Molecular target: T1, human A3 adenosine receptor (Homo sapiens, UniProt P0DMS8)
T1 sequence (P0DMS8 1-318): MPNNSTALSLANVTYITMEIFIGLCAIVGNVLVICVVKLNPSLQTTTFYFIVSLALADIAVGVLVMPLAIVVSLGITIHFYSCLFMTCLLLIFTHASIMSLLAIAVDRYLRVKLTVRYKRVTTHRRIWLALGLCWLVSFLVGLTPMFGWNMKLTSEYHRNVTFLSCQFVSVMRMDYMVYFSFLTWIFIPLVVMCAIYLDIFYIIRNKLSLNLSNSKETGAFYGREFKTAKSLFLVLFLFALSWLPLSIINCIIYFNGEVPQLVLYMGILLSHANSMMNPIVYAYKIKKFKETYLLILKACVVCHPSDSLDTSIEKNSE
Conditions: reference agonist

In the case of `CNC(=O)[C@H]1O[C@@H](n2cnc3c(NCc4cccc(I)c4)nc(Cl)nc32)[C@H](O)[C@@H]1O` [Cl-IB-MECA, 2-chloro-N^6-(3-iodobenzyl)-5′methylcarboxamidoadenosine], the “agonist behaviour at A3 receptor” value is listed as “full agonist”.
